The results in this text go back to patent US12532886B2, “Method of killing microbes using C3-C5 n-alkyl-gamma-butyrolactams and antimicrobial compositions containing same” (Virox Technologies Inc., priority 2018, dated 2026).

The test system of the assay is M. smegmatis. As to the kind of experiment: ASTM E2197-02 test method, without soil load, against mycobacteria. The format is cell-based. As to the method: Solutions A, B and AA were prepared to test the antimicrobial activity of N-alkyl-gamma-butyrolactam, specifically N-butyl-gamma-butyrolactam and N-octyl-gamma-butyrolactam. These solutions were tested using the ASTM E2197-02 test method (5-minute contact time or 75 second contact time) without soil load, against hard-to-kill mycobacteria (M. smegmatis).
Solution B was also tested using ASTM E2197-02 test method (75 second contact time), without soil load, against mycobacteria (M. smegmatis) and achieved a log10 reduction of 0.11 (shown in the last row of Table 1.0).
Additional solutions were prepared to assess the antimicrobial activity of N-alkyl-gamma-butyrolactam, specifically N-butyl-gamma-butyrolactam, when combined with other antimicrobial agents in aqueous solution. These solutions are summarized in Tables 2.0, 2.1, and 2.2 below and tested using ASTM E2197-02 test method (75 second contact time), without soil load, against mycobacteria (M. smegmatis).

As for `CCCCN1CCCC1=O` [N-butyl-gamma-butyrolactam], the “Antimicrobial activity against M. smegmatis, 5 minutes contact time” value is reported as “possesses antimicrobial activity”.
As for `CCCCCCCCN1CCCC1=O` [N-octyl-gamma-butyrolactam], the entry is “no antimicrobial activity”.
